The test system of one assay is IMR-32. The assay is described as follows: Antiproliferative activity against human IMR32 cells assessed as reduction in cell viability after 48 hrs by SRB assay. Type of assay: functional. As to conditions: IMR-32, 48 h. For orientation: In SRB staining, fixed cells bind dye roughly in proportion to their protein.
In assay [1] the test system is HeLa. The assay is described as follows: Antiproliferative activity against human HeLa cells assessed as reduction in cell viability after 48 hrs by SRB assay. Type of assay: functional.
For a further assay, the system named is MCF7. The assay is described as follows: Antiproliferative activity against human MCF7 cells assessed as reduction in cell viability after 48 hrs by SRB assay. The settings on record: MCF7, 48 h. Type of assay: functional, cell-based.
The next assay deals with HepG2. As to the kind of experiment: Antiproliferative activity against human HepG2 cells assessed as reduction in cell viability after 48 hrs by SRB assay. Type of assay: functional. The settings on record: HepG2, 48 h.
The next assay concerns HBL-100. As to the kind of experiment: Antiproliferative activity against human HBL100 cells by MTT assay. Type of assay: functional, cell-based. A general note: Tetrazolium assays rely on reduction of a dye to a coloured formazan, in cell work by metabolically active cells.
The next assay relates to SW1573. The assay is described as follows: Antiproliferative activity against human SW1573 cells by MTT assay. Type of assay: functional, cell-based.
For another assay, the system named is WiDr. As to the kind of experiment: Antiproliferative activity against human WiDr cells by MTT assay. Type of assay: functional, cell-based.
The test system of a further assay is T47D. The assay is described as follows: Antiproliferative activity against human T47D cells by MTT assay. Type of assay: functional, cell-based.
Assay [2] deals with HeLa. As to the kind of experiment: Antiproliferative activity against human HeLa cells by MTT assay. Type of assay: functional, cell-based.
For assay [3], the system named is A549. As to the kind of experiment: cells. Type of assay: functional, cell-based. The settings on record: Homo sapiens.
Description: Antiproliferative activity against human A549 cells by MTT assay
For another assay, the system named is COLO 205. As to the kind of experiment: Antiproliferative activity against human COLO205 cells assessed as reduction in cell viability after 24 hrs by MTT assay. The settings on record: COLO 205, 24 h. Type of assay: functional, cell-based.
Another assay has as its system MDA-MB-231. As to the kind of experiment: Antiproliferative activity against human MDA-MB-231 cells assessed as reduction in cell viability after 24 hrs by MTT assay. Type of assay: functional, cell-based. The settings on record: MDA-MB-231, 24 h.
The test system of assay [4] is A549. As to the kind of experiment: Antiproliferative activity against human A549 cells assessed as reduction in cell viability after 24 hrs by MTT assay. As to conditions: A549, 24 h. Type of assay: functional, cell-based.
The next assay deals with A-431. The assay is described as follows: Antiproliferative activity against human A431 cells assessed as reduction in cell viability after 24 hrs by MTT assay. As to conditions: A-431, 24 h. Type of assay: functional, cell-based.
In the next assay the test system is K562. As to the kind of experiment: Antiproliferative activity against human K562 cells assessed as reduction in cell viability after 24 hrs by MTT assay. Type of assay: functional, cell-based. The settings on record: K562, 24 h.
A further assay relates to PC-3. The assay is described as follows: Antiproliferative activity against human PC3 cells assessed as reduction in cell viability after 24 hrs by MTT assay. Type of assay: functional, cell-based. As to conditions: PC-3, 24 h.

Molecules are shown by their SMILES.

As to `Cc1ccc(-c2c(OCc3cn(Cc4ccccc4Cl)nn3)cnn2-c2ccc(F)cc2)cc1`, the GI50 in the assay on IMR-32, in the assay with HeLa [1], in the assay on MCF7 and in the assay on HepG2 was 1.8 to 9.7 µM throughout.
`Cc1ccc(-n2cc(OCc3cn(Cc4ccccc4Br)nn3)cn2)cc1`: the GI50 in the assay with IMR-32, in the assay on HeLa [1], with MCF7 and in the assay on HepG2 was 1.8 to 9.7 µM each time.
Regarding `Cc1ccc(-n2cc(OCc3cn(Cc4ccccc4Cl)nn3)cn2)cc1`, the GI50 in the assay with IMR-32, with HeLa [1], in the assay with MCF7 and with HepG2 was 1.8 to 9.7 µM each time.
Turning to `C=CCC1CC(Cc2cn([C@H](c3nc(C(=O)OC)co3)C(C)CC)nn2)CC(O[Si](C)(C)C(C)(C)C)C1` (stereo not given in full), the IC50 with HBL-100, in the assay with SW1573, in the assay on WiDr, in the assay with T47D, in the assay with HeLa [2] and in the assay with A549 [3] was 3.1 to 88 µM throughout.
On to `COC(=O)c1coc(Cn2cc(CC3CC(CCc4ccccc4)CC(O[Si](C)(C)C(C)(C)C)C3)nn2)n1` (stereo not given), for which the IC50 with HBL-100, with SW1573, with WiDr, with T47D, in the assay with HeLa [2] and in the assay with A549 [3] was 3.1 to 88 µM throughout.
In the case of `COC(=O)c1coc(Cn2cc(CC3CC(O[Si](C)(C)C(C)(C)C)CC(C(C)C)C3)nn2)n1` (stereo not given), the IC50 in the assay with HBL-100, with SW1573, with WiDr, in the assay on T47D, in the assay with HeLa [2] and in the assay with A549 [3] was 3.1 to 88 µM throughout.
With `Cc1ccc(-c2c(OCc3cn(Cc4ccc([N+](=O)[O-])cc4)nn3)cnn2-c2ccc(F)cc2)cc1`, the GI50 in the assay on IMR-32, in the assay on HeLa [1], in the assay with MCF7 and in the assay with HepG2 was 1.8 to 9.7 µM throughout.
As to `CCCC1CC(Cc2cn(Cc3nc(C(=O)OC)co3)nn2)CC(O[Si](C)(C)C(C)(C)C)C1` (stereo not given), the IC50 in the assay on HBL-100, in the assay with SW1573, in the assay on WiDr, in the assay with T47D, with HeLa [2] and in the assay on A549 [3] was 3.1 to 88 µM throughout.
Turning to `CC(=O)c1cccc(-n2cc(CO[C@H]3O[C@@H]4O[C@@]5(C)O[C@]46[C@@H](CC[C@@H](C)[C@@H]6C[C@H]5O)[C@H]3C)nn2)c1`, the IC50 in the assay with COLO 205, in the assay on MDA-MB-231, in the assay with A549 [4], in the assay on A-431, with K562 and in the assay with PC-3 was 4.06 to 89.9 µM in each case.
Consider `CCC(C)[C@@H](c1nc(C(=O)OC)co1)n1cc(CC2CC(CCc3ccccc3)CC(O[Si](C)(C)C(C)(C)C)C2)nn1` (stereo not given in full), for which the IC50 in the assay on HBL-100, in the assay with SW1573, in the assay with WiDr, with T47D, with HeLa [2] and with A549 [3] was 3.1 to 88 µM each time.
As for `COc1ccc(Cn2cc(COc3cnn(-c4ccc(C)cc4)c3)nn2)cc1`, the GI50 in the assay with IMR-32, in the assay with HeLa [1], in the assay with MCF7 and in the assay on HepG2 was 1.8 to 9.7 µM each time.
For `C[C@H]1[C@@H](OCc2cn(-c3ccc([N+](=O)[O-])cc3)nn2)O[C@@H]2O[C@@]3(C)O[C@]24[C@H]1CC[C@@H](C)[C@@H]4C[C@H]3O`, the IC50 in the assay on COLO 205, in the assay on MDA-MB-231, with A549 [4], in the assay with A-431, in the assay on K562 and in the assay with PC-3 was 4.06 to 89.9 µM throughout.
On to `Cc1ccc(-c2c(OCc3cn(Cc4ccccc4Br)nn3)cnn2-c2ccc(F)cc2)cc1`, for which the GI50 in the assay with IMR-32, in the assay with HeLa [1], in the assay on MCF7 and in the assay with HepG2 was 1.8 to 9.7 µM each time.
As for `COC(=O)c1coc([C@H](Cc2ccccc2)n2cc(CC3CC(O[Si](C)(C)C(C)(C)C)CC(C(C)C)C3)nn2)n1` (stereo not given in full), the IC50 in the assay on HBL-100, in the assay with SW1573, with WiDr, in the assay with T47D, in the assay on HeLa [2] and in the assay on A549 [3] was 3.1 to 88 µM throughout.
As to `O=[N+]([O-])c1ccc(Cn2cc(COc3cnn(-c4ccccc4)c3-c3ccccc3)nn2)cc1`, the GI50 in the assay on IMR-32, in the assay with HeLa [1], in the assay with MCF7 and in the assay with HepG2 was 1.8 to 9.7 µM in each case.
With `Fc1ccc(-n2ncc(OCc3cn(Cc4ccccc4)nn3)c2-c2ccc(Cl)cc2)cc1`, the GI50 with IMR-32, in the assay with HeLa [1], in the assay on MCF7 and in the assay on HepG2 was 1.8 to 3.8 µM each time.
`Fc1ccc(-n2ncc(OCc3cn(Cc4cccc(Cl)c4)nn3)c2-c2ccc(Cl)cc2)cc1`: the GI50 in the assay on IMR-32, in the assay with HeLa [1], in the assay on MCF7 and in the assay with HepG2 was 1.8 to 9.7 µM in each case.
For `CCCC1CC(Cc2cn([C@@H](Cc3ccccc3)c3nc(C(=O)OC)co3)nn2)CC(O[Si](C)(C)C(C)(C)C)C1` (stereo not given in full), the IC50 in the assay with HBL-100, in the assay with SW1573, in the assay with WiDr, with T47D, with HeLa [2] and with A549 [3] was 3.1 to 88 µM each time.
For the compound `CC(=O)c1ccccc1-n1cc(CO[C@H]2O[C@@H]3O[C@@]4(C)O[C@]35[C@@H](CC[C@@H](C)[C@@H]5C[C@H]4O)[C@H]2C)nn1`, the IC50 in the assay on COLO 205, in the assay with MDA-MB-231, in the assay with A549 [4], in the assay on A-431, in the assay with K562 and in the assay with PC-3 was 4.06 to 89.9 µM throughout.
In the case of `CC(=O)c1ccc(-n2cc(CO[C@H]3O[C@@H]4O[C@@]5(C)O[C@]46[C@@H](CC[C@@H](C)[C@@H]6C[C@H]5O)[C@H]3C)nn2)cc1`, the IC50 in the assay on COLO 205, in the assay on MDA-MB-231, in the assay on A549 [4], with A-431, with K562 and with PC-3 was 4.06 to 89.9 µM each time.
Take `CCCC1CC(Cc2cn([C@H](c3nc(C(=O)OC)co3)C(C)CC)nn2)CC(O[Si](C)(C)C(C)(C)C)C1` (stereo not given in full): the IC50 in the assay with HBL-100, in the assay on SW1573, with WiDr, in the assay with T47D, in the assay on HeLa [2] and in the assay with A549 [3] was 3.1 to 88 µM throughout.
Regarding `C[C@@H]1CC[C@H]2[C@@H](C)C(=O)O[C@@H]3O[C@@]4(C)CC[C@@H]1[C@]32OO4` [ARTEMISININ], the IC50 with COLO 205, in the assay with MDA-MB-231, in the assay on A549 [4], with A-431, in the assay on K562 and with PC-3 was 39 to 68.8 µM in each case.
As for `CCC(C)[C@@H](c1nc(C(=O)OC)co1)n1cc(CC2CC(O[Si](C)(C)C(C)(C)C)CC(C(C)C)C2)nn1` (stereo not given in full), the IC50 in the assay with HBL-100, with SW1573, with WiDr, in the assay with T47D, with HeLa [2] and in the assay on A549 [3] was 3.1 to 88 µM each time.
As to `COC(=O)c1coc([C@H](Cc2ccccc2)n2cc(CC3CC(CCc4ccccc4)CC(O[Si](C)(C)C(C)(C)C)C3)nn2)n1` (stereo not given in full), the IC50 in the assay on HBL-100, in the assay with SW1573, with WiDr, with T47D, in the assay with HeLa [2] and in the assay with A549 [3] was 3.1 to 88 µM throughout.
In the case of `C[C@H]1[C@@H](OCc2cn(-c3ccc(C#N)cc3)nn2)O[C@@H]2O[C@@]3(C)CC[C@H]4[C@H](C)CC[C@@H]1[C@@]24OO3`, the IC50 in the assay with COLO 205, in the assay on MDA-MB-231, in the assay on A549 [4], in the assay on A-431, in the assay on K562 and in the assay on PC-3 was 4.06 to 89.9 µM throughout.
In the case of `CC(=O)c1ccc(-n2cc(CO[C@H]3O[C@@H]4O[C@@]5(C)CC[C@H]6[C@H](C)CC[C@@H]([C@H]3C)[C@@]46OO5)nn2)cc1`, the IC50 in the assay on COLO 205, in the assay with MDA-MB-231, in the assay with A549 [4], in the assay on A-431, in the assay on K562 and in the assay with PC-3 was 4.06 to 89.9 µM throughout.
For `C[C@H]1[C@@H](OCc2cn(-c3ccc(C#N)cc3)nn2)O[C@@H]2O[C@@]3(C)O[C@]24[C@H]1CC[C@@H](C)[C@@H]4C[C@H]3O`, the IC50 with COLO 205, with MDA-MB-231, in the assay on A549 [4], in the assay on A-431, with K562 and with PC-3 was 4.06 to 89.9 µM in each case.
As to `C[C@H]1[C@@H](OCc2cn(-c3ccc([N+](=O)[O-])cc3)nn2)O[C@@H]2O[C@@]3(C)CC[C@H]4[C@H](C)CC[C@@H]1[C@@]24OO3`, the IC50 in the assay with COLO 205, in the assay with MDA-MB-231, in the assay on A549 [4], in the assay on A-431, with K562 and with PC-3 was 4.06 to 89.9 µM throughout.

For the origin of these results see ChEMBL document CHEMBL4342418, “1,2,3-Triazole-containing hybrids as potential anticancer agents: Current developments, action mechanisms and structure-activity relationships” (Eur J Med Chem, 2019).
